Reference: patent US8802597B2, “Herbicidal pyrimidines” (E I du Pont de Nemours and Company, priority 2003, dated 2014)
Read-outs that look alike come from different tables or passages of the source.

How the values were obtained:
Experiment in all cases: Test C pre/postemergence
Type in all cases: in vivo
[1] = test system: Surinam grass (Brachiaria decumbens); conditions: Urochloa decumbens; for pest or weed control at 125 g/ha: 125 g ai/ha; for pest or weed control at 62 g/ha: 62 g ai/ha
Summary of the method: (§1)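 Greenhouse pot test: seeds treated preemergence, or plants at 2–18 cm (1- to 4-leaf stage) treated postemergence, with compound in non-phytotoxic solvent plus surfactant. Visual rating versus untreated controls after 12–14 days, scale 0 (no effect) to 100 (complete control); dash means not tested.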

[2] = test system: common (oilseed) sunflower (Helianthus annuus); conditions: Helianthus annuus, pre-emergence, Preemergence, read-out: Plant response rating, Sunflower
Summary of the method: as §1

[3] = test system: johnsongrass (Sorghum halepense); conditions: Sorghum halepense; for pest or weed control at 31 g/ha: 31 g ai/ha; for pest or weed control at 62 g/ha: 62 g ai/ha; for pest or weed control at 125 g/ha: 125 g ai/ha; for pest or weed control at 250 g/ha: 250 g ai/ha
Summary of the method: as §1

[4] = test system: crabgrass (Digitaria sanguinalis); conditions: Digitaria sanguinalis; for pest or weed control at 31 g/ha: 31 g ai/ha; for pest or weed control at 62 g/ha: 62 g ai/ha; for pest or weed control at 125 g/ha: 125 g ai/ha; for pest or weed control at 250 g/ha: 250 g ai/ha
Summary of the method: as §1

[5] = test system: morningglory (Ipomoea coccinea); conditions: Ipomoea; for pest or weed control at 31 g/ha: 31 g ai/ha; for pest or weed control at 62 g/ha: 62 g ai/ha; for pest or weed control at 125 g/ha: 125 g ai/ha; for pest or weed control at 250 g/ha: 250 g ai/ha
Summary of the method: as §1

[6] = test system: eastern black nightshade (Solanum ptycanthum); conditions: Solanum, pre-emergence, Preemergence, read-out: Plant response rating, Nightshade
Summary of the method: as §1

[7] = test system: lambsquarters (Chenopodium album); conditions: Chenopodium album, post-emergence, Postemergence
Summary of the method: as §1

[8] = post-emergence, Postemergence, scale 0 to 100 (0 no effect, 100 complete control), read-out: Surinam Grass plant response rating
[9] = 31 g ai/ha, scale 0 to 100, 0 no effect, 100 complete control
[10] = 62 g ai/ha, scale 0 to 100, 0 no effect, 100 complete control
[11] = post-emergence, Postemergence, scale 0 to 100 (0 no effect, 100 complete control), read-out: Johnsongrass plant response rating
[12] = pre-emergence, Preemergence, scale 0 to 100, 0 no effect, 100 complete control, read-out: Plant response rating, Johnsongrass
[13] = pre-emergence, Preemergence, scale 0 to 100, read-out: Plant response rating, Johnsongrass
[14] = post-emergence, Postemergence, scale 0 to 100 (0 no effect, 100 complete control), read-out: Crabgrass plant response rating
[15] = pre-emergence, Preemergence, scale 0 to 100, 0 no effect, 100 complete control, read-out: Plant response rating, Crabgrass
[16] = pre-emergence, Preemergence, scale 0 to 100, read-out: Plant response rating, Crabgrass
[17] = post-emergence, Postemergence, scale 0 to 100 (0 no effect, 100 complete control), read-out: Morningglory plant response rating
[18] = pre-emergence, Preemergence, scale 0 to 100, 0 no effect, 100 complete control, read-out: Plant response rating, Morningglory
[19] = pre-emergence, Preemergence, scale 0 to 100, read-out: Plant response rating, Morningglory

CCOC(=O)c1nc(-c2ccc(Cl)cc2)nc(N)c1Cl [Compound 64, ethyl 6-amino-5-chloro-2-(4-chlorophenyl)-4-pyrimidinecarboxylate]
pest or weed control at 125 g/ha [1, 8]: 60% | pest or weed control at 31 g/ha ([1]; post-emergence, Postemergence, 31 g ai/ha, read-out: Plant response rating (scale of 0 to 100), Surinam Grass): 20% | pest or weed control at 62 g/ha [1, 8]: 60% | pest or weed control at 62 g/ha ([1]; pre-emergence, Preemergence, scale 0 to 100, 0 no effect, 100 complete control, read-out: Plant response rating, Surinam Grass): 0% | pest or weed control at 125 g/ha ([1]; pre-emergence, Preemergence, scale 0 to 100, read-out: Plant response rating, Surinam Grass): 50% | pest or weed control at 250 g/ha ([1]; pre-emergence, Preemergence, 250 g ai/ha, scale 0 to 100, read-out: Plant response rating, Surinam Grass): 90% | pest or weed control at 31 g/ha [2, 9]: 0% | pest or weed control at 62 g/ha [2, 10]: 0% | pest or weed control at 125 g/ha ([2]; 125 g ai/ha, scale 0 to 100): 30% | pest or weed control at 250 g/ha ([2]; 250 g ai/ha, scale 0 to 100): 85% | pest or weed control at 31 g/ha ([3]; post-emergence, Postemergence, read-out: Plant response rating (scale of 0 to 100), Johnsongrass): 60% | pest or weed control at 62 g/ha [3, 11]: 80% | pest or weed control at 125 g/ha [3, 11]: 85% | pest or weed control at 250 g/ha ([3]; post-emergence, Postemergence, scale 0 to 100, read-out: Plant response rating, Johnsongrass): 85% | pest or weed control at 31 g/ha [3, 12]: 5% | pest or weed control at 62 g/ha [3, 12]: 5% | pest or weed control at 125 g/ha [3, 13]: 50% | pest or weed control at 250 g/ha [3, 13]: 60% | pest or weed control at 31 g/ha ([4]; post-emergence, Postemergence, read-out: Plant response rating (scale of 0 to 100), Crabgrass): 70% | pest or weed control at 62 g/ha [4, 14]: 80% | pest or weed control at 125 g/ha [4, 14]: 85% | pest or weed control at 250 g/ha ([4]; post-emergence, Postemergence, scale 0 to 100, read-out: Plant response rating, Crabgrass): 90% | pest or weed control at 31 g/ha [4, 15]: 0% | pest or weed control at 62 g/ha [4, 15]: 0% | pest or weed control at 125 g/ha [4, 16]: 70% | pest or weed control at 250 g/ha [4, 16]: 90% | pest or weed control at 31 g/ha ([5]; post-emergence, Postemergence, read-out: Plant response rating (scale of 0 to 100), Morningglory): 90% | pest or weed control at 62 g/ha [5, 17]: 90% | pest or weed control at 125 g/ha [5, 17]: 90% | pest or weed control at 250 g/ha ([5]; post-emergence, Postemergence, scale 0 to 100, read-out: Plant response rating, Morningglory): 90% | pest or weed control at 31 g/ha [5, 18]: 0% | pest or weed control at 62 g/ha [5, 18]: 0% | pest or weed control at 125 g/ha [5, 19]: 0% | pest or weed control at 250 g/ha [5, 19]: 10% | pest or weed control at 31 g/ha [6, 9]: 5% | pest or weed control at 62 g/ha [6, 10]: 85% | pest or weed control at 125 g/ha ([6]; 125 g ai/ha, scale 0 to 100): 85% | pest or weed control at 250 g/ha ([6]; 250 g ai/ha, scale 0 to 100): 95% | pest or weed control at 31 g/ha ([7]; 31 g ai/ha, read-out: Plant response rating (scale of 0 to 100), Lambsquarters): 80% | pest or weed control at 62 g/ha ([7]; 62 g ai/ha, scale 0 to 100 (0 no effect, 100 complete control), read-out: Lambsquarters plant response rating): 90% | pest or weed control at 125 g/ha ([7]; 125 g ai/ha, scale 0 to 100 (0 no effect, 100 complete control), read-out: Lambsquarters plant response rating): 90% | pest or weed control at 250 g/ha ([7]; 250 g ai/ha, scale 0 to 100, read-out: Plant response rating, Lambsquarters): 90%
